Data published in publication PMC10801772 (The Journal of Pharmacology and Experimental Therapeutics, 2024).
Values joined by “and” are separate entries in the source; they are usually repeats but may differ in a detail not shown here. Equal values may be shown once. Read-outs that look alike come from different tables or passages of the source.

Assays:
[1] = cited from earlier work; for Brain penetration: in vivo
[2] = system: mice at terminal stages of botulism (2.2x LD50 BoNT/A, i.v.); settings: mouse, in vivo
[3] = system: healthy mice; settings: mouse, in vivo
[4] = system: patients with LEMS; settings: human, in vivo; cited from earlier work
[5] = mouse, in vivo, sc, 2 mg/kg; cited from earlier work
[6] = system: animal models of botulism; settings: in vivo; cited from earlier work
[7] = system: mice at terminal stages of botulism (2.2x LD50 BoNT/A, i.v.); settings: mouse, in vivo; remark: listed apart in the source
[8] = in vivo, po; cited from earlier work

Q: Which results are given for Nc1ccnc(N)c1 [2,4-DAP, 2,4-diaminopyridine]?
A: Brain penetration [1]: poor brain penetration; Relative effects on TV versus RR [2]: increased TV and RR by roughly equal proportions

Q: For Nc1ccnc(F)c1 [2F-4AP, 4-amino-2-fluoropyridine], which “Effects on ventilatory parameters (MV, TV, RR)” value [2] is on record?
A: indistinguishable from vehicle

Q: Which Brain penetration [1] does the source give for Nc1cncc(N)c1N [3,4,5-TAP, 3,4,5-triaminopyridine] here?
A: poor brain penetration

Q: And the “Relative effects on TV versus RR” value [2]?
A: increased TV and RR by roughly equal proportions

Q: With Nc1ccncc1N [3,4-DAP, 3,4-diaminopyridine] as the molecule, how does the “Effect on MV” value [3] read?
A: no changes in MV

Q: And the “Effect on RR” value [3]?
A: significantly increased RR

Q: And the “Effect on TV” value [3]?
A: concomitant reductions in TV

Q: What about the “Exposure needed for typical patients with LEMS” value [4] of the same molecule?
A: 32 ng/mL

Q: And the Maximum blood levels [5]?
A: 840 ng/mL

Q: What about the “Exposure required for reversal of botulism symptoms” value [6] of the same molecule?
A: 125 ng/mL

Q: And the Blood gas levels [7]?
A: did not improve

Q: What about the Lactate [7] of the same molecule?
A: did not show any significant improvement

Q: What about the “Time to improvement in blood gas levels” value [7] of the same molecule?
A: 45 min and < 30 min

Q: And the “Time to reversal of respiratory acidosis (pCO2, HCO3-, pH, lactate)” value [7]?
A: ≤ 30 minutes

Q: What about the “pCO2, pH and HCO3-” value [7] of the same molecule?
A: improved

Q: And the “Effect on pO2 levels” value ([7]; sc)?
A: Neither intoxication nor 3,4-DAP treatment had an effect on pO2 levels

Q: What about the “Effect on ventilatory parameters (TV, RR, MV, mid-expiratory flow, peak inspiratory flow, peak expiratory flow, expired volume, enhanced pause)” value [2] of the same molecule?
A: significantly improved

Q: What about the “Lowest dose to produce an unambiguous peak response in MV” value [2] of the same molecule?
A: 0.25 mg/kg

Q: And the “Relative effects on TV versus RR” value [2]?
A: more potent effects on TV

Q: What about the “Time after treatment at which MV significantly improved” value [2] of the same molecule?
A: 10 min

Q: And the “Time after treatment to maximum effect on MV” value [2]?
A: 25 to 30 min

Q: And the “Time after which ventilatory parameters began to decline” value [2]?
A: approximately 30 minutes

Q: And the “Time up to which all ventilatory parameters remained significantly improved compared with vehicle” value [2]?
A: 90 min

Q: And the “Doses that increased both ventilatory parameters and respiration” value ([2]; sc)?
A: ≥ 0.25 mg/kg

Q: What does the source list for [2H]c1nc([2H])c(N)c(N)c1[2H] [3,4-DAP-d3, 3,4-diaminopyridine-d3]?
A: CNS permeability / brain penetration ([1]; not told): low central nervous system (CNS) permeability; Relative effects on TV versus RR [2]: more potent effects on TV

Q: With Nc1c(F)cncc1F [3,5DF-4AP, 4-amino-3,5-difluoropyridine] as the molecule, how does the “Effects on ventilatory parameters (MV, TV, RR)” value [2] read?
A: indistinguishable from vehicle

Q: Which CNS permeability ([1]; not told) does the source give for Nc1ccncc1F [3F-4AP, 4-amino-3-fluoropyridine] here?
A: CNS-permeable

Q: And the “Relative effects on TV versus RR” value [2]?
A: more potent effects on RR

Q: What about the “Symptomatic benefits compared with the other effective aminopyridines” value [2] of the same molecule?
A: modest and short in duration

Q: For Nc1ccncc1 [4-AP, 4-aminopyridine], which “Blood brain barrier permeability relative to 3,4-DAP” value ([1]; not told) is on record?
A: approximately sixfold greater

Q: And the “Effect on MV” value [3]?
A: no changes in MV

Q: And the “Effect on RR” value [3]?
A: significantly increased RR

Q: What about the “Effect on TV” value [3] of the same molecule?
A: concomitant reductions in TV

Q: And the “Relative effects on TV versus RR” value [2]?
A: increased TV and RR by roughly equal proportions

Q: For [2H]c1nc([2H])c([2H])c(N)c1[2H] [4-AP-d4, 4-aminopyridine-d4], which “Relative effects on TV versus RR” value [2] is on record?
A: increased TV and RR by roughly equal proportions

Q: Which Maximum blood levels [8] does the source give for Nc1ccncc1N [amifampridine] here?
A: 38.6 ± 9.2 ng/mL
